We go through 8 compounds from PubChem BioAssay (NCI).

Each structure is given as a SMILES string.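 How tested: cells in 96-well plates exposed to compound for 48 hours at five concentrations. TGI marks complete inhibition of growth.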

Among the test systems are IGROV1 ovarian; NCI-H23 lung; COLO 205 colon; 786-0 renal; NCI-H522 lung; OVCAR-4 ovarian; ACHN renal; OVCAR-8 ovarian; HT29 colon; SR leukemia; NCI/ADR-RES ovarian; MOLT-4 leukemia; HCT-15 colon; UACC-257 melanoma; NCI-H226 lung; TK-10 renal; RXF 393 renal; RPMI-8226 leukemia; DU-145 prostate.
Holding throughout (assay): NCI-60 cell line screen, 48 h

As to `C=CC[C@H]1O[Si](C(C)(C)C)(C(C)(C)C)[C@H](C)[C@H]1C`, the TGI in the assay on IGROV1 ovarian, with NCI-H23 lung, with COLO 205 colon, in the assay with 786-0 renal, in the assay on NCI-H522 lung and in the assay on OVCAR-4 ovarian was over 100 µM in each case. Further, the TGI in the assay on ACHN renal, with OVCAR-8 ovarian, in the assay with HT29 colon, in the assay with SR leukemia, in the assay with NCI/ADR-RES ovarian and in the assay on MOLT-4 leukemia was over 100 µM throughout. Moreover, the TGI in the assay on HCT-15 colon, in the assay on UACC-257 melanoma, with NCI-H226 lung and with TK-10 renal was over 100 µM each time.

For the compound `c1ccc(C(C2=Nc3cccc4cccc(c34)N2)c2ccccc2)cc1`, the TGI in the assay on IGROV1 ovarian was over 100 µM; in the assay with NCI-H23 lung, over 100 µM; in the assay with COLO 205 colon, 36.7 µM; in the assay on 786-0 renal, 69.9 µM; in the assay with NCI-H522 lung, 36.3 µM; in the assay on RXF 393 renal it was 61.5 µM. The TGI in the assay with OVCAR-4 ovarian is over 100 µM; in the assay on ACHN renal it was 50.2 µM; in the assay with OVCAR-8 ovarian, over 100 µM; with RPMI-8226 leukemia, over 100 µM; with HT29 colon, 60.1 µM; in the assay on NCI/ADR-RES ovarian, 50.5 µM. Moreover, the TGI was 93.6 µM in the assay with HCT-15 colon; 68 µM with UACC-257 melanoma; 91.3 µM with DU-145 prostate; 84.7 µM in the assay with NCI-H226 lung; over 100 µM in the assay on TK-10 renal.

For the compound `CN(CC(=O)N1CC(CCl)c2ccc([N+](=O)[O-])cc21)CC(=O)N1CC(CCl)c2ccc([N+](=O)[O-])cc21` (stereo unspecified), the TGI in the assay with IGROV1 ovarian, in the assay on NCI-H23 lung, in the assay with COLO 205 colon, with 786-0 renal, in the assay on NCI-H522 lung and in the assay on ACHN renal was over 100 µM each time. In addition, the TGI in the assay on OVCAR-8 ovarian, with RPMI-8226 leukemia, in the assay with HT29 colon, with NCI/ADR-RES ovarian, with MOLT-4 leukemia and with HCT-15 colon was over 100 µM each time. The TGI with UACC-257 melanoma, in the assay on DU-145 prostate, in the assay with NCI-H226 lung and with TK-10 renal was over 100 µM throughout.

On to `COc1c2c(cc3c1C(=O)c1c(O)cccc1C3=O)CC(O)CC2` (stereo unspecified), for which the TGI in the assay on IGROV1 ovarian is over 100 µM; with NCI-H23 lung, 47 µM; in the assay with COLO 205 colon it was over 100 µM; in the assay on 786-0 renal, over 100 µM; with OVCAR-4 ovarian, over 100 µM; in the assay on ACHN renal, over 100 µM. Moreover, the TGI in the assay on OVCAR-8 ovarian, with HT29 colon, with NCI/ADR-RES ovarian, in the assay with MOLT-4 leukemia, with HCT-15 colon and in the assay on UACC-257 melanoma was over 100 µM each time. In addition, the TGI in the assay with DU-145 prostate, in the assay with NCI-H226 lung and in the assay on TK-10 renal was over 100 µM throughout.

As for `O=C(C1OC1c1ccc(Cl)cc1)C12CC3CC(CC(C3)C1)C2` (stereo unspecified), the TGI came to 67.4 µM with IGROV1 ovarian; 38.4 µM with NCI-H23 lung; 35.7 µM with COLO 205 colon; 30.7 µM with 786-0 renal; 42.5 µM in the assay with NCI-H522 lung; 39.2 µM in the assay with RXF 393 renal. The TGI was found to be 40 µM with OVCAR-4 ovarian; 90.1 µM in the assay with ACHN renal; 32.9 µM in the assay with OVCAR-8 ovarian; 41.9 µM with HT29 colon; 49 µM with NCI/ADR-RES ovarian; 51.9 µM in the assay on MOLT-4 leukemia. Besides, the TGI in the assay with HCT-15 colon was 82 µM; in the assay on UACC-257 melanoma, 54.7 µM; in the assay with DU-145 prostate, over 100 µM; in the assay with NCI-H226 lung, 38.5 µM; in the assay with TK-10 renal, over 100 µM.

In the case of `NC1CC(=O)c2cscc21` (stereo unspecified), the TGI in the assay on IGROV1 ovarian is over 100 µM; in the assay on NCI-H23 lung, over 100 µM; in the assay with COLO 205 colon, 52 µM; in the assay with 786-0 renal, 28.4 µM; in the assay with RXF 393 renal, over 100 µM; in the assay on OVCAR-4 ovarian it was over 100 µM. Also, the TGI is over 100 µM in the assay with OVCAR-8 ovarian; over 100 µM in the assay with RPMI-8226 leukemia; over 100 µM in the assay on HT29 colon; over 100 µM with NCI/ADR-RES ovarian; over 100 µM in the assay on MOLT-4 leukemia; 88.5 µM in the assay with HCT-15 colon. The TGI with UACC-257 melanoma is over 100 µM; with DU-145 prostate, over 100 µM; in the assay with TK-10 renal, 33.6 µM.

For the compound `N/C(=N\N=C/c1ccc(O)c(O)c1O)NO`, the TGI in the assay with IGROV1 ovarian is over 100 µM; in the assay on NCI-H23 lung, 68.4 µM; in the assay with COLO 205 colon, 17.6 µM; with NCI-H522 lung it was 52.9 µM; in the assay with RXF 393 renal it was 33.5 µM; in the assay with OVCAR-4 ovarian it was 25.5 µM. The TGI in the assay on OVCAR-8 ovarian was over 54.1 µM; in the assay with RPMI-8226 leukemia, over 100 µM; in the assay on HT29 colon, 35.1 µM; with NCI/ADR-RES ovarian it was 40.3 µM; in the assay with MOLT-4 leukemia, over 66.6 µM; in the assay on HCT-15 colon, 34.5 µM. In addition, the TGI is over 100 µM in the assay with UACC-257 melanoma and over 77 µM in the assay with NCI-H226 lung.

Consider `NC1c2c(Br)sc(N3CCCC3)c2C(=O)C1O` (stereo unspecified), for which the TGI in the assay on IGROV1 ovarian, in the assay with NCI-H23 lung, in the assay on COLO 205 colon, in the assay on 786-0 renal, in the assay on NCI-H522 lung and in the assay with OVCAR-4 ovarian was over 50 µM each time. The TGI in the assay on ACHN renal, in the assay with OVCAR-8 ovarian, in the assay with HT29 colon, in the assay on NCI/ADR-RES ovarian, in the assay on MOLT-4 leukemia and in the assay on HCT-15 colon was over 50 µM throughout. The TGI in the assay with UACC-257 melanoma, with DU-145 prostate, in the assay on NCI-H226 lung and with TK-10 renal was over 50 µM each time.
